For 3 cell lines, relative viability results are on record in the supplement of paper PMC10307832.

Common to all, as to assay: relative viability (nuclei count vs DMSO), 5 days (fraction); higher = more cells survive
Compound in the assay “Entinostat + Bortezomib”: Nc1ccccc1NC(=O)c1ccc(CNC(=O)OCc2cccnc2)cc1 [Entinostat] + CC(C)C[C@H](NC(=O)[C@H](Cc1ccccc1)NC(=O)c1cnccn1)B(O)O [Bortezomib] (partner 0.002 µM)
A digest of the protocol: (§1)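 Lung cancer cell lines were seeded in 1536-well plates and dosed by pin tool the next day, with either a single drug or a fixed anchor-drug dose combined with five library-drug doses (not always all listed) spaced in √10 steps. Five days later, one step fixed the cells and stained their nuclei (final 0.05% Triton X-100, 1% formaldehyde, 1 ug/ml Hoechst), and nuclei were counted on 4× images. Relative viability is the nuclei count in treated wells divided by the count in vehicle wells, and each value is the median of duplicate plates.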

Compound in assay [1]: C1COCCN1C2=NC(=NC3=C2OC4=C3C=CC=N4)C5=CC(=CC=C5)NC(=O)C6=CN=C(C=C6)N + N=C(N)NC(=N)NCCc1ccccc1 [Phenformin] (partner 250 µM)
A digest of the protocol:
as §1

Compound in the assay “SGI-1776 + Bortezomib”: CN1CCC(CNc2ccc3ncc(-c4cccc(OC(F)(F)F)c4)n3n2)CC1 [SGI-1776] + CC(C)C[C@H](NC(=O)[C@H](Cc1ccccc1)NC(=O)c1cnccn1)B(O)O [Bortezomib] (partner 0.002 µM)
A digest of the protocol: as §1

Compound in assay [2]: C1COCCN1C2=NC(=NC3=C2OC4=C3C=CC=N4)C5=CC(=CC=C5)NC(=O)C6=CN=C(C=C6)N + COc1cccc2cc(-c3nc([C@H]4CC[C@H](C(=O)O)CC4)n4ncnc(N)c34)[nH]c12 [OSI-027] (partner 0.5 µM)
The gist of the method:
as §1

As for RERF-LC-KJ, the relative viability was determined as 1.06 with Entinostat + Bortezomib (first compound 0.02 µM); 1.21 with Entinostat + Bortezomib (first compound 0.06325 µM); 0.998 with Entinostat + Bortezomib (first compound 0.2 µM); 0.643 with Entinostat + Bortezomib (first compound 0.6325 µM); 0.417 with Entinostat + Bortezomib (first compound 2 µM); 0.416 in assay [1] (first compound 0.02 µM). For the same cell line, the relative viability in assay [1] (first compound 0.06325 µM) amounted to 0.484; in assay [1] (first compound 0.2 µM), 0.395; in assay [1] (first compound 0.6325 µM), 0.426; in assay [1] (first compound 2 µM) it was 0.291; with SGI-1776 + Bortezomib (first compound 0.08 µM), 1.1; with SGI-1776 + Bortezomib (first compound 0.8 µM), 1.08. The relative viability in the assay with SGI-1776 + Bortezomib (first compound 2.53 µM) turned out to be 0.956; with SGI-1776 + Bortezomib (first compound 8 µM), 1.04; in assay [2] (first compound 0.02 µM), 0.558; in assay [2] (first compound 0.06325 µM) it was 0.594; in assay [2] (first compound 0.2 µM) it was 0.558; in assay [2] (first compound 0.6325 µM) it was 0.458. The relative viability in assay [2] (first compound 2 µM) was 0.462.

Take SK-LU-1: the relative viability was determined as 1.34 with Entinostat + Bortezomib (first compound 0.02 µM); 1.4 in the assay with Entinostat + Bortezomib (first compound 0.06325 µM); 0.988 with Entinostat + Bortezomib (first compound 0.2 µM); 0.537 in the assay with Entinostat + Bortezomib (first compound 0.6325 µM); 0.305 with Entinostat + Bortezomib (first compound 2 µM); 0.56 in assay [1] (first compound 0.02 µM). Besides, the relative viability in assay [1] (first compound 0.06325 µM) was determined as 0.488; in assay [1] (first compound 0.2 µM), 0.513; in assay [1] (first compound 0.6325 µM) it was 0.567; in assay [1] (first compound 2 µM), 0.349; with SGI-1776 + Bortezomib (first compound 0.08 µM) it was 1.28; with SGI-1776 + Bortezomib (first compound 0.8 µM), 1.31. Besides, the relative viability is 1.52 with SGI-1776 + Bortezomib (first compound 2.53 µM); 0.807 with SGI-1776 + Bortezomib (first compound 8 µM); 0.38 in assay [2] (first compound 0.02 µM); 0.36 in assay [2] (first compound 0.06325 µM); 0.348 in assay [2] (first compound 0.2 µM); 0.329 in assay [2] (first compound 0.6325 µM). In assay [2] (first compound 2 µM), the relative viability was determined as 0.266.

With SW 1573, the relative viability with Entinostat + Bortezomib (first compound 0.02 µM) came to 1.06; with Entinostat + Bortezomib (first compound 0.06325 µM), 1.14; with Entinostat + Bortezomib (first compound 0.2 µM) it was 1.19; in the assay with Entinostat + Bortezomib (first compound 0.6325 µM) it was 0.836; with Entinostat + Bortezomib (first compound 2 µM), 0.787; in assay [1] (first compound 0.02 µM), 0.368. The relative viability was 0.454 in assay [1] (first compound 0.06325 µM); 0.314 in assay [1] (first compound 0.2 µM); 0.319 in assay [1] (first compound 0.6325 µM); 0.205 in assay [1] (first compound 2 µM); 1.03 with SGI-1776 + Bortezomib (first compound 0.08 µM); 0.872 in the assay with SGI-1776 + Bortezomib (first compound 0.8 µM). In addition, the relative viability with SGI-1776 + Bortezomib (first compound 2.53 µM) is 1.07; with SGI-1776 + Bortezomib (first compound 8 µM), 0.935; in assay [2] (first compound 0.02 µM), 0.592; in assay [2] (first compound 0.06325 µM) it was 0.776; in assay [2] (first compound 0.2 µM) it was 0.75; in assay [2] (first compound 0.6325 µM), 0.477. The relative viability in assay [2] (first compound 2 µM) is 0.371.
